In experiment [1] the target is T1, LPLA2 (Homo sapiens, UniProt Q8NCC3).
T1 sequence (Q8NCC3 34-412): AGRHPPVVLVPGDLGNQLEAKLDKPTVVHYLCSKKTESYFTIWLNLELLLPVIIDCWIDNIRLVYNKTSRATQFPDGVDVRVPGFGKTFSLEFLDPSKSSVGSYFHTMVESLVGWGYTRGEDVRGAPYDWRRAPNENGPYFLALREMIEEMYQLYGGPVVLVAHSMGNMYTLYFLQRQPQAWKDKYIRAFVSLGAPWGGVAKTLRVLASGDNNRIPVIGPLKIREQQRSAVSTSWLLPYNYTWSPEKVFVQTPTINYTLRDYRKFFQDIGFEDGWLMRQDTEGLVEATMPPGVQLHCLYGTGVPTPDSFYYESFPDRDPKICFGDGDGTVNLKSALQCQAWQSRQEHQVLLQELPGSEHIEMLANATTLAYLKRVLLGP
Particulars: background description; cited from earlier work.

Experiment [2] deals with LPLA2 null alveolar macrophages. The note with it: Abe et al. J. Immunol 2008; cited from earlier work.
Experiment [3] has the same test system. As to the kind of experiment: Uptake of recombinant LPLA2 into LPLA2 null alveolar macrophages (Western blotting, confocal microscopy, enzyme activity). The class given is cell-based, mouse. The text has this: Recombinant glycosylated mouse LPLA2 produced by HEK293 cells was applied to LPLA2-deficient (LPLA2−/−) mouse alveolar macrophages. […] Thus, the predominant pathway for uptake of exogenous LPLA2 is via the mannose receptor. (Abe et al., J. Immunol, 181(11):7873-81, 2008).
The ability of macrophages from LPLA2−/− mice to recognize, endocytose, and traffic recombinant LPLA2 was studied as follows. LPLA2 null alveolar macrophages were exposed to His-tagged mouse LPLA2 for 1 day at concentrations varying between 0.3 and 10 μg/ml. Cell incorporation was measured by Western blotting and confocal microscopy using either anti-His antibody or a monoclonal antibody raised to LPLA2.
(§1) Finally, the ability of the recombinant enzyme to “rescue” the cellular phenotype was confirmed by measuring the cellular phospholipid content.

Experiment [4] has as its target T2, recombinant mouse LPLA2 (Mus musculus, UniProt Q8VEB4).
T2 sequence (Q8VEB4 34-412): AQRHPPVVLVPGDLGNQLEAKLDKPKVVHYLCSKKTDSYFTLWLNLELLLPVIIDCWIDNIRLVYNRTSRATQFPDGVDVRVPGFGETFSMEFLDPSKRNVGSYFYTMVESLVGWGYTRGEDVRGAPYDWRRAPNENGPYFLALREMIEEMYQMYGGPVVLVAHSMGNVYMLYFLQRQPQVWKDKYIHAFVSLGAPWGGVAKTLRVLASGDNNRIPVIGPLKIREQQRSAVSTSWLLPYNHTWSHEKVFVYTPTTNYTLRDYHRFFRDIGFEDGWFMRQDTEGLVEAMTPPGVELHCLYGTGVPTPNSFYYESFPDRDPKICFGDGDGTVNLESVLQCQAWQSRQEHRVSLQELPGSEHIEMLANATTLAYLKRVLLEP
The experiment is described as follows: 1-O-acylceramide synthase (transacylase) activity of recombinant LPLA2 on liposomes, 1-O-oleoyl-NAS by HPTLC. The class given is biochemical. Particulars: DOPC/sulfatide/NAS liposomes vs DOPC/NAS, pH 4.5, 5-45 min at 37° C.; FIGS. 11A and 11B.
Description: To address this possibility, the 1-O-acylceramide synthase activity of LPLA2 was studied in liposomes in which the anionic lipid content was varied by the addition of sulfatide, a negatively charged, sulfate containing glycolipid that is not a substrate for LPLA2. Di-octanoyl-PC (DOPC) was used as the liposomal substrate. The reaction mixture contained 48 mM sodium citrate (pH 4.5), 10 μg/ml BSA, liposomes (127 μM phospholipid) and 14.5 ng/ml of recombinant mouse LPLA2 in 500 μl of total volume. Liposomes consisting of DOPC/NAS (3:1, molar ratio) or DOP/sulfatide/NAS (3:0.3:1, molar ratio) were incubated with the enzyme for 5, 10, 15, 30 and 45 min at 37° C. The reaction products were extracted and separated by an HPTLC plate using a solvent system consisting of chloroform/acetic acid (9:1, v/v). The reaction product, 1-O-oleoyl-NAS, quantified by scanning the plate, was plotted against time (FIG. 11A). Liposomes consisting of DOPC/galactosylceramide/NAS or DOPC/sulfatide/NAS with a different molar ratio were incubated with the recombinant enzyme at 37° C. (FIG. 11B).

Experiment [5] deals with T2, recombinant mouse LPLA2. The experiment is described as follows: Co-sedimentation of LPLA2 with liposomes (ultracentrifugation, SDS-PAGE). The class given is binding. Particulars: DOPC or DOPC/sulfatide (10:1) liposomes; 33 μM amiodarone; FIGS. 13B and 13C. The method, then: Liposomes consisting of DOPC or DOPC/sulfatide (10:1, molar ratio) were incubated with varying amounts of recombinant mouse LPLA2 in 500 μl of 48 mM Na-citrate (pH 4.5) for 30 min on ice (FIG. 13A). […] The reaction mixtures were centrifuged for 1 h at 150,000 g at 4° C. The concentration of DOPC in these assays was 127 μM. The resultant precipitates were briefly washed with cold 50 mM Na-citrate (pH 4.5) and dissolved with 40 μl of SDS-polyacrylamide gel electrophoresis sampling buffer. The samples were separated by using 12% SDS-polyacrylamide gel. After electrophoresis, LPLA2 was detected by staining with CBB.

In experiment [6] the target is T3, LPLA2 (Canis lupus familiaris, UniProt Q6XPZ3).
T3 construct: endogenous in cells; host or cells: MDCK cells
T3 sequence (Q6XPZ3 32-408): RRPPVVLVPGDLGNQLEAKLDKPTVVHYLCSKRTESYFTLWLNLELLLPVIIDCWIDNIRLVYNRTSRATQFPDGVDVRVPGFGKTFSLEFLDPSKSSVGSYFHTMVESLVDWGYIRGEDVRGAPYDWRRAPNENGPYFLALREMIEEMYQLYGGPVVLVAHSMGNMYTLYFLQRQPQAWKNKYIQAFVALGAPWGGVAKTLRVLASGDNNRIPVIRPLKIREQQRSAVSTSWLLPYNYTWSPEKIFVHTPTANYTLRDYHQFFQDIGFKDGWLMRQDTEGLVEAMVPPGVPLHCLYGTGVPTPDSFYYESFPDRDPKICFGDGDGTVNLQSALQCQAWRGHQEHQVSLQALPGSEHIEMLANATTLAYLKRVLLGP
The experiment is described as follows: LPLA2 activity in MDCK cells treated with cationic amphiphilic drugs, measured as transacylation of N-acetylsphingosine. It is filed as cell-based. The protocol:
LPLA2 activity was measured as the transacylation of N-acetylsphingosine. […] The major cellular phospholipids were assayed following 1 or 7 days of exposure to the CAD.

For experiment [7], the system named is acidic transacylation of ceramide. The note with it: lysosomal fraction of cells; earlier observation; cited from earlier work.
Experiment [8] relates to LPLA2 null alveolar macrophages. As to the kind of experiment: Rescue of cellular phospholipid content in LPLA2 null alveolar macrophages by recombinant enzyme. It is filed as cell-based, mouse. The note with it: LPLA2 null alveolar macrophages treated with enzyme.
Description: as §1

For the molecule `CCCCC/C=C\C/C=C\C/C=C\C/C=C\CCCC(=O)C(F)(F)F` [nonadecyltetraenyl trifluoromethyl ketone], the “inhibition of LPLA2 enzyme activity” value at LPLA2 [1] is “do not inhibit the enzyme activity”.
As for `O=C1O/C(=C/Br)CCC1c1cccc2ccccc12` (centres unmarked) [bromoenollactone], the “inhibition of LPLA2 enzyme activity” value at LPLA2 [1] is “do not inhibit the enzyme activity”.
As to `COC1O[C@H](CO)[C@@H](O)[C@H](O)[C@@H]1O` (stereo partly drawn) [α-Methyl-mannoside, α-methyl-mannoside], in experiment [2], the “suppression of uptake of exogenous LPLA2” value is “significantly suppressed”. Further, the “blocking of incorporation of recombinant LPLA2” value in experiment [3] (10 mM, 1-O-acyl-ceramide synthase activity, immunoblotting, confocal microscopy) is reported as “blocked the incorporation of LPLA2”.
In the case of sulfatide, the “transacylation activity in presence of anionic lipid” value on recombinant mouse LPLA2 [4] is reported as “time dependent increase in the transacylation activity”. In addition, the “physical association between LPLA2 and liposomes” value on recombinant mouse LPLA2 [5] is given as “increased”.
With `CCCCCCCCCC(=O)NC(CN1CCOCC1)C(O)c1ccccc1` (centres unmarked) [PDMP, 1-phenyl-2-decanoylamino-3-morpholino-1-propanol], the “inhibition of LPLA2 activity as measured by ceramide transacylation” value at LPLA2 [6] (MDCK cells treated for 1 or seven days, FIG. 10A) is on record as “concentration dependent inhibition of LPLA2 activity”. Moreover, the “IC50 for enzyme inhibition” value on LPLA2 [6] (MDCK cells, no numbers given) is reported as “comparable IC50s”. Also, in experiment [7], the “inhibition of acidic transacylation of ceramide” value is given as “inhibit acidic transacylation of ceramide”.
On to `CCCCc1oc2ccccc2c1C(=O)c1cc(I)c(OCCN(CC)CC)c(I)c1` [amiodarone], for which the “physical association between LPLA2 and liposomes” value at recombinant mouse LPLA2 [5] was “inhibited”.

B1: Recombinant glycosylated mouse LPLA2: Recombinant glycosylated mouse LPLA2 produced by HEK293 cells (protein, UniProt Q8VEB4 34-412, looked up)
Lysosomal phospholipase A and …: T2 sequence (Q8VEB4 34-412)
modifications: HEK293-produced glycosylated
notes: Recombinant glycosylated mouse LPLA2 produced by HEK293 cells
B1: the “uptake of exogenous LPLA2 into LPLA2−/− alveolar macrophages” value in experiment [2] was “occurred in a concentration-dependent manner”.

B2: His-tagged mouse LPLA2: His-tagged recombinant mouse lysosomal phospholipase A2 applied to LPLA2 null alveolar macrophages (protein)
chain: T2 sequence (Q8VEB4 34-412)
modifications: left off: small tags and cut ends
notes: His-tagged recombinant mouse lysosomal phospholipase A2 applied to LPLA2 null alveolar macrophages
Consider B2, for which the “cellular LPLA2 (cell incorporation)” value in experiment [3] (1 day at 0.3 to 10 μg/ml, Western blotting, confocal microscopy, enzyme activity) is “concentration dependent increase in cellular LPLA2”. The “co-localization with lysosome protein Lamp-1” value in experiment [3] (cells stained with anti-LPLA2 and Lamp-1 antibodies) is reported as “readily detected”. In addition, the “cell phosphatidylcholine and phosphatidylethanolamine content” value in experiment [8] was “concentration dependent decrease in cell phosphatidylcholine and phosphatidylethanolamine”.
